Tests used:
[1] = Rat hindpaw withdrawal latency (HWL) to mechanical stimulation (Randall Selitto Test); type: in vivo; details: Day 14, i.t. every 12 hrs, morphine 8 μg rotated with nociceptin 10 nmol every 2 days
[2] = Development of tolerance to intrathecal analgesia in rat HWL study (thermal and mechanical); type: in vivo; details: drug alone i.t. every 12 hrs
[3] = Rat hindpaw withdrawal latency (HWL) to thermal stimulation (hot-plate test, 52° C.); type: in vivo; details: Day 6, i.t. every 12 hrs: morphine 8 μg, or rotated with nociceptin 10 nmol every 2 days
[4] = after parenteral injection; cited from earlier work

Row | SMILES | % Changes of HWL to Mechanical Stimulation 10 Minutes After Intrathecal Injection, Left [1] | day by which total/complete tolerance exists [2] | % Changes of HWL to Thermal Stimulation 10 Minutes After Intrathecal Injection, Left ([3]; left hindpaw) | % Changes of HWL to Thermal Stimulation 10 Minutes After Intrathecal Injection, Right ([3]; right hindpaw) | brain penetration [4]
1 | CN1CC[C@]23c4c5ccc(O)c4O[C@H]2[C@@H](O)C=C[C@H]3[C@H]1C5 [Morphine, morphine] | −0.84 ± 1.61% | ≤ 6 days | −1.30 ± 2.36% | 0.51 ± 1.61% | –
2 | O=C1NCN(c2ccccc2)C12CCN([C@H]1CC[C@@H]3CCCc4cccc1c43)CC2 [RO 64-6198, (1S,3aS)8-(2,3,3a,4,5,6-hexahydro-1H-phenalen-1-yl)-1-phenyl-1,3,8-triaza-spiro[4,5]decan-4-one] | – | – | – | – | high degree of brain penetration
